Measured values as given in US4610868A, “Lipid matrix carriers for use in drug delivery systems” (The Liposome Company, Inc., priority 1984, dated 1986).
Read-outs that look alike come from different tables or passages of the source.

What was measured:
[1] = Entrapment of ^14C-sucrose/streptomycin in LMCs (liquid scintillation counting); assay type: physicochemical; conditions: with streptomycin, corn oil/EPC, water-in-oil emulsion
Method: Streptomycin (Sigma Chemical Co., St. Louis, Missouri) and ^14 C-sucrose (New England Nuclear, Boston, Massachusetts, 31.3 μCi/m mole) were used together as model water soluble compounds for entrapment in conjunction with corn oil and EPC. The ratio of corn oil to EPC used to prepare the emulsion was […] (weight/weight basis). The water-in-oil emulsion was prepared as follows: 6 ml of corn oil, 40 mg of EPC and 0.3 ml of phosphate buffered saline (PBS) containing 10 μl of ^14 C-sucrose and 100 mg of streptomycin were sonicated together for 45 seconds, using a Branson Model E sonicator at 22° C. The resulting water-in-oil emulsion was then extruded slowly through a 21 gauge syringe needle into 40 ml of the saturated acetone solution, with rapid stirring.
A cloudy suspension of LMCs resulted that was centrifuged at 10,000×gfor 10 minutes at 4° C. The clear supernatant fluid was removed, and the pellet was washed three times with cold saturated acetone, dried under a nitrogen stream, and resuspended in 10 ml of PBS. The hydrated LMCs were then diluted with an equal volume of Ficoll-Paque (Pharmacia Fine Chemicals, Piscataway, New Jersey) and centrifuged at 10,000×g for 10 minutes. […]
In FIG. 4, the data are based upon the stability of streptomycin-LMCs in serum. […] At the times indicated, the absorbances of the samples at 400 and 600 nm were determined, and the 400/600 ratios were computed.

[2] = assay type: in vivo, Swiss Webster mice; conditions: 80 mg/kg IM
Method: LMCs containing oxytetracycline--HCl (Sigma Chemical Co., St. Louis, Missouri) were prepared as described in Section 6.1.3. supra. The LMCs thus produced contained 20 mg of oxytetracycline per ml of hydrated LMCs, as determined by the bioassay described in Section 6.1.3. Ten 25 g female adult Swiss Webster mice were then injected IM with 80 mg/kg of oxytetracycline in one hind leg, using either LMC-oxytetracycline or the free drug. In both cases, the antibiotic was administered in 0.1 ml of physiological saline.
At the times indicated in FIG. 3, samples of clean-catch urine were taken and aliquots were plated onto lawns of S. aureus (ATCC 11632) as described in Section 7.1. Antibiotic levels were quantified by comparison to an oxytetracycline standard curve. […] By 174 hours following injection, urinary levels of oxytetracycline were undetectable.

[3] = Systemic release (urine) of oxytetracycline after topical administration; assay type: in vivo, Swiss Webster mice; conditions: 0.2 ml of 100 mg/ml, 1, 18, 44 and 72 hours
Method: (§1) In the following experiment, two groups of adult male Swiss Webster mice were treated with oxytetracycline as follows: 5 mice per group were depilitated on the back of their necks and 0.2 ml of 100 mg/ml oxytetracycline was topically applied to the depilitated area. The control group received oxytetracycline in PBS whereas the second group received oxytetracycline encapsulated in LMCs prepared as described in Section 6.1.3.
Clean catch urine samples were taken at 1, 18, 44, and 72 hours after topical application and aliquots were analyzed for the presence of oxytetracycline using the bioassay previously described in Sections 6.1.2, 7.1, and 7.2.

[4] = Fluorescence/retention of oxytetracycline in skin after topical administration; assay type: in vivo, Swiss Webster mice; conditions: 0.2 ml of 100 mg/ml
Method: as §1
On a daily basis the treated area of each mouse was illuminated with ultraviolet light and inspected for fluorescence. Since oxytetracycline is fluorescent, the fluorescence of the treated skin is an indication of the presence of the drug in the skin. Fluorescence could be detected for only 2 days in the control group treated with the aqueous solution of oxytetracycline. […] In contrast, fluorescence could be detected up to 4 days in the group that was treated with oxytetracycline-LMCs.

[5] = Entrapment of indomethacin or diazepam in LMCs (radiolabeled tracer); assay type: physicochemical
Method: Ten mg of indomethacin (Sigma Chemical Co., St. Louis, Missouri) plus 10 μl of the ^14 C-labeled drug as a tracer (New England Nuclear, Boston, Massachusetts, 22 mCi/m mole) were dissolved in 1.5 ml of chloroform. This solution was then combined with 4 ml of corn oil and 150 mg of EPC, and the mixture was slowly extruded through a 21 gauge syringe needle into 20 ml of PBS at 45° C., with stirring. After combining all constituents, the mixture was roto-evaporated at 45° C. to remove the chloroform. One ml of the resulting suspension was then combined with an equal volume of Ficoll-Paque, the mixture was centrifuged at 10,000×g for 10 minutes, and the LMCs, which floated to the top of the gradient, were isolated.
By following the procedure described in Section 6.2.1., supra, 5 mg of diazepam (Abbott Laboratories, N. Chicago, Illinois) with a trace of the ^3 H-labeled drug added (New England Nuclear, Boston, Massachusetts, 76.7 Ci/m mole) were incorporated into LMCs.

[6] = parameters: species or system Hartley guinea pigs; conditions: guinea pig, in vivo, ip
Method: To investigate the drug release characteristics of LMCs in vivo, gentamicin-LMC preparations were injected intraperitoneally (IP) into experimental animals. The final distribution of the drug was then compared with that of similarly injected free gentamicin.
LMCs were prepared as described in Section 6.1.2., using 6 ml of corn oil, 0.3 ml of PBS, 40 mg of EPC, 100 mg of gentamicin (with a small amount of I-gentamicin added as a tracer) and 40 ml of acetone. The resulting product contained 0.5 mg of gentamicin per mg of dry weight LMCs, as determined by gamma counting.
Two groups of 850 g female adult Hartley guinea pigs (Hilltop Farms, Scottsdale, Pennsylvania) were treated as follows: Animals in one group each received 0.3 ml of 100 μg/ml gentamicin in saline (with a small amount of ^125 I-gentamicin added as a tracer), IP. IP injection leads to rapid systemic distribution of the injected material. Animals in the other group received the same quantity of gentamicin entrapped in LMCs. At various times after injection pairs of animals were sacrificed, the hearts, spleens, kidneys and livers were removed, and the quantity of gentamicin in each organ was determined by counting in a crystal gamma counter.

## OC[C@H]1O[C@@](CO)(O[C@H]2O[C@H](CO)[C@@H](O)[C@H](O)[C@H]2O)[C@@H](O)[C@@H]1O [^14 C-sucrose, sucrose]
[1]
  initial amount of ^14 C-sucrose entrapped in the LMCs: 96.5%

## CN(C)C1C(=O)C(C(N)=O)=C(O)C2(O)C(=O)C3=C(O)c4c(O)cccc4C(C)(O)C3C(O)C12 (stereo not drawn) [oxytetracycline]
[2]
  time within which urinary levels diminished to zero: ≤ 30 h
[3]
  oxytetracycline in urine: No detectable levels
[4]
  duration of detectable skin fluorescence: 2 days
  removal from skin by washing: could easily be washed off

## COc1ccc2c(c1)c(CC(=O)O)c(C)n2C(=O)c1ccc(Cl)cc1 [indomethacin]
[5]
  degree of entrapment: 84%
[5]; corn oil/EPC, chloroform
  degree of entrapment (starting amount incorporated into the LMCs): 84%

## gentamicin
[6]; 15 min
  Recovery of Gentamicin, Heart: 0.17 % of Total Administered
  Recovery of Gentamicin, Kidney: 2.53 % of Total Administered
  Recovery of Gentamicin, Liver: 2.60 % of Total Administered
  Recovery of Gentamicin, Spleen: 0.09 % of Total Administered
[6]; 30 min
  Recovery of Gentamicin, Heart: 1.23 % of Total Administered
  Recovery of Gentamicin, Kidney: 4.32 % of Total Administered
  Recovery of Gentamicin, Liver: 3.14 % of Total Administered
  Recovery of Gentamicin, Spleen: 0.08 % of Total Administered
[6]; 60 min
  Recovery of Gentamicin, Heart: 0.15 % of Total Administered
  Recovery of Gentamicin, Kidney: 7.04 % of Total Administered
  Recovery of Gentamicin, Liver: 2.28 % of Total Administered
  Recovery of Gentamicin, Spleen: 0.05 % of Total Administered
[6]; 120 min
  Recovery of Gentamicin, Heart: 0.13 % of Total Administered
  Recovery of Gentamicin, Kidney: 7.27 % of Total Administered
  Recovery of Gentamicin, Liver: 2.00 % of Total Administered
  Recovery of Gentamicin, Spleen: 0.04 % of Total Administered

## CN1C(=O)CN=C(c2ccccc2)c2cc(Cl)ccc21 [diazepam]
[5]
  degree of entrapment: 93%
